According to the Kinase Knowledgebase extract (Sharma et al. 2016):

What follows are compounds tested against CDK2 (human) (UniProt P24941) (assay: Enzyme Assay).

Compound	IC50
C=CCOc1ccc(CN/C=C2\C(=O)NC(=O)c3ccc(Br)cc32)cc1O	29 µM
COc1ccc(CNC=C2C(=O)NC(=O)c3ccc(-c4ccc5ccccc5c4)cc32)cc1O	50 µM
O=C1NC(=O)c2ccc(Br)cc2/C1=C/NCc1ccc(OCCO)c(O)c1	50 µM
Cc1cccc(-c2ccc3c(c2)C(=CNCc2ccc(O)c(O)c2)C(=O)NC3=O)c1	50 µM
CC(=O)Nc1ccc(CN/C=C2\C(=O)NC(=O)c3ccc(Br)cc32)cc1O	50 µM
O=C1NC(=O)c2ccc(-c3ccoc3)cc2/C1=C/NCc1ccc(OC(F)F)c(O)c1	50 µM

These reach a lower IC50. Values come first.

IC50	Compound
23 µM	O=C1NC(=O)c2ccccc2/C1=C/Nc1ccc(CN2CCCCC2)cc1
13.1 µM	CC(C)(C)c1ccc2c(c1)C(=CNCc1cc(O)ccc1-c1ccoc1)C(=O)NC2=O
13.1 µM	CC(C)(C)c1ccc2c(c1)C(=CNCc1ccc(-c3ccoc3)c(O)c1)C(=O)NC2=O
2.4 µM	COc1cnc(CNC=C2C(=O)NC(=O)c3ccc(-n4cccc4)cc32)cc1O
0.7 µM	CCCOc1ccc(CN/C=C2\C(=O)NC(=O)c3ccc(I)cc32)nc1O
